From patent US10000521B2 (priority 2013, dated 2018)
“Also recorded” adds a separate entry of the source.

Legend:
[1] = TC50 assay in different human cell lines (96 h), HEK293; assay type: cell-based; conditions: HEK293 cells, about 96 h, MTS assay
Method: (§1) The 96-well plate with cells incubated with test compound was removed from the 37° C. incubator. The appropriate amounts of the MTS and PMS reagents were removed from the kit and mixed well. The reagents were maintained in the dark due to their light sensitivity. […] The solutions were mixed completely in the wells prior to each reading.
(§2) Plating Cells: Huh7, HEPG2, HEK293, MCF-7, or BxPC3 cells (which can be obtained from American Type Culture Collection, ATCC) were passaged when they were about 70% confluent. […] The cells following passaging were allowed to attach for about 24 hours at 37° C.
(§3) The plates were then returned to the incubator, and cells incubated for about 96 h at 37° C.
(§4) MTS Assay: Assay was carried out as described above.

[2] = system: PK9 cells; assay: TC50 assay with inhibition of ENT1, PK9 cells; assay type: cell-based; conditions: Homo sapiens, PK9, 48 h, PK9 cells (48 h)
Method: (§5) Plating Cells: Huh7 cells or PK9 cells were seeded in 96-well plates at a density of 5,000 cells/well or 2,500 cells/well, respectively, and the plates were incubated at 37° C. for 24 h to allow for cell attachment.
(§6) Treatment with equilibrative nucleoside transporter 1 (ENT1) Inhibitor: The media was then removed from the plates and replaced with media containing 2% FBS, 0.5% DMSO, and either 10 μM dipyramidole or 10 μM S-(4-nitrobenzyl)-6-thioinosine (NBTI).
(§7) Treating with Control & Compound 1: After incubation with the ENT1 inhibitor, the cells were treated with each compound at final concentrations ranging from 500 μM to 0 μM in triplicate in media containing 2% FBS, 0.5% DMSO, and either 10 μM dipyridamole or 10 μM NBTI.

[3] = system: HCV replicon; assay: IC50 assay with HCV luciferase replicon cell-line; assay type: cell-based; conditions: Hepatitis C virus, Huh-7; Huh7 cell line containing HCV replicon with luciferase reporter, 48 h
Source text: Plating Cells: The cells used in these assays were a liver-derived Huh7 cell line containing an HCV replicon bearing a luciferase reporter gene. The Huh7 cell-line can be obtained from various sources including the Japanese Collection of Research Bioresources (JCRB), Osaka, Japan. The Huh7 cell line containing an HCV replicon bearing a luciferase reporter gene can be prepared essentially as described by Vrolijk J M, et al. (J Virol Methods. (2003) 110(2):201-9). Cells were passaged when they reached about 70% confluency.
These 0.5 mM dilutions were then used to further serially dilute the compounds in DMEM+2% FBS+0.5% DMSO to keep the concentration of DMSO in each condition identical.
The Glo Lysis Buffer and the Bright Glow reagent was allowed to warm to room temperature for about 30 min in the dark. […] The media was removed from cells, and the cells were gently washed with about 100 μL of phosphate buffered saline (PBS). […] It should be noted that luciferin has a half-life of approximately 30 min at room temperature after it is added to the plate. […] The data was saved and used to calculate the percent inhibition of luciferase activity at each drug concentration. […] Curve equation: (m1−m2)/(1+(x/m3)^m4); m1=100; m2=0.01; m3=0.01; m4=0.01; the equation is: […]

[4] = In vivo pharmacokinetic assessment (LC-MS/MS, plasma and liver); conditions: mice, oral
Method: All pharmacokinetic studies were performed with CD-1 ICR mice (female, 4-6 week old; 20-30 gram body weight), and three mice were used at each dose level and at each time point for each compound tested. […] Tetrahydrouridine (THU) was immediately added to plasma samples at a final concentration of 25 μg/mL to prevent deamination of dFdC after collection, and the samples were subsequently flash-frozen and stored at −80° C. until analysis. Approximately 200-300 mg of each mouse liver was dissected and homogenized in 150 μL of phosphate buffered saline (PBS) containing 25 μg/mL THU, resulting in 2 mg liver/μL saline homogenate. These liver homogenates were also flash-frozen and stored at −80° C. until analysis. Equivalent amounts of blood plasma and liver tissue were also collected from untreated mice and used to prepare calibration standards and quality controls. An LC-MS/MS assay was utilized to simultaneously quantify the concentrations of compound 1, dFdC and dFdU in each of the plasma and liver samples.

[5] = system: BxPC3; assay: TC50 assay in different human cell lines (96 h), BxPC3; assay type: cell-based; conditions: BXPC-3, about 96 h, MTS assay
Method: as §1, §2, §3, §4

[6] = system: Huh7; assay: TC50 assay in different human cell lines (96 h), Huh7; assay type: cell-based; conditions: Huh-7, about 96 h, MTS assay
Method: as §1, §2, §3, §4

[7] = system: CD-1 ICR mice; assay: In vivo toxicology assessment
Method: All in vivo toxicology assays were performed with CD-1 ICR mice (female, 4-6 week old; 20-30 gram body weight). Groups of one to five mice were treated at each dose level. In one study, compound 1 was prepared at concentrations ranging from 0.1 mg/mL to 30 mg/mL in dimethyl sulfoxide (DMSO) and 200 μL of each solution was administered via oral gavage to mice at final doses of 0.67, 2.0, 6.7, 20, 67 and 200 mg/kg.
A second study was carried out using a different vehicle. As above, CD-1 ICR mice (female, 4-6 week old; 20-30 gram body weight) were used. Groups of one to five mice were treated at each dose level. Compound 1 was prepared in Formulation I (5% DMSO/10% Solutol/17% (2-Hydroxypropyl)-β-cyclodextrin in aqueous solution) at concentrations ranging from 0.03 mg/mL to 1.0 mg/mL, and administered orally. Briefly, mice were treated with 200 μL of compound 1 in Formulation I via oral gavage at final doses of 2.4 mg/kg and 8.0 mg/kg. In a parallel study, compound 1 was administered intravenously. Briefly, mice were injected with 100 μL of compound 1 in Formulation I at final doses ranging from 0.12 mg/kg to 4.0 mg/kg.

[8] = system: Huh7 cells; assay: TC50 assay with inhibition of ENT1, Huh7 cells; assay type: cell-based; conditions: Homo sapiens, Huh-7, 48 h, Huh7 cells (48 h)
Method: as §5, §6, §7

[9] = system: MCF-7; assay: TC50 assay in different human cell lines (96 h), MCF-7; assay type: cell-based; conditions: MCF7, about 96 h, MTS assay
Method: as §1, §2, §3, §4

SMILES: O=C(Nc1ccn(C2O[C@H](CO)[C@@H](O)C2(F)F)c(=O)n1)c1ccc2c(c1)OCO2 (stereo partly drawn) [Compound 1, N-(1-((4R,5R)-3,3-difluoro-4-hydroxy-5-(hydroxymethyl)tetrahydrofuran-2-yl)-2-oxo-1,2-dihydropyrimidin-4-yl)benzo[d][1,3]dioxole-5-carboxamide]
- CC50 at 96 h [1]: 4.09 µM
- CC50 ([2]; 10 μM NBTI): 2920 ± 410 nM
- CC50 ([2]; 10 μM dipyridamole): 610 ± 310 nM
- CC50 ([2]; ENT1 inhibitor: None): 1630 ± 100 nM
- IC50 [3]: 60 ± 8 nM
- distribution of gemcitabine produced by hydrolysis, liver versus plasma [4]: higher concentration in the liver than in plasma
- linearity of dFdC exposure vs. compound 1 dosage ([4]; 1.0-8.0 mg/kg): linear pharmacokinetics
- Liver AUCobs of compound 1 ([4]; dose 1.0 mg/kg): 1.10 µmol·min/L
- Plasma AUCobs of compound 1 ([4]; dose 1.0 mg/kg): 0.95 µmol·min/L
- Plasma AUCobs of dFdC converted from compound 1 ([4]; dose 1.0 mg/kg): 0.26 µmol·min/L
- Liver AUCobs of compound 1 ([4]; dose 4.0 mg/kg): 7.84 µmol·min/L
- Plasma AUCobs of compound 1 ([4]; dose 4.0 mg/kg): 3.45 µmol·min/L
- Plasma AUCobs of dFdC converted from compound 1 ([4]; dose 4.0 mg/kg): 5.03 µmol·min/L
- Liver AUCobs of compound 1 ([4]; dose 8.0 mg/kg): 9.53 µmol·min/L
- Plasma AUCobs of compound 1 ([4]; dose 8.0 mg/kg): 3.71 µmol·min/L
- Plasma AUCobs of dFdC converted from compound 1 ([4]; dose 8.0 mg/kg): 9.45 µmol·min/L
- first-pass metabolism to inactive metabolite dFdU ([4]; plasma and liver samples): less of the inactive metabolite dFdU; also recorded: reduced first pass metabolism to the inactive metabolite dFdU
- CC50 [5]: 720 nM
- CC50 [6]: 7.04 µM
- tolerability / toxicity ([7]; IV in Formulation I, 0.12 to 4.0 mg/kg, 48 hour observation): well-tolerated and no toxicity was observed
- tolerability / toxicity ([7]; oral gavage in DMSO, 0.67-200 mg/kg, 24 hour observation): well-tolerated and no toxicity was observed
- tolerability / toxicity ([7]; oral gavage in Formulation I, 2.4 and 8.0 mg/kg, 48 hour observation): well-tolerated and no toxicity was observed
- CC50 ([8]; 10 μM NBTI): 440 ± 190 µM
- CC50 ([8]; 10 μM dipyridamole): 410 ± 110 µM
- CC50 ([8]; ENT1 inhibitor: None): 473 ± 74 µM
- CC50 [9]: 1190 nM
